Experimental data taken from ChEMBL document CHEMBL2380286, “Synthesis, characterization and anti-tumor activity of novel thymoquinone analogs against pancreatic cancer” (2013).
Activity calls are given as the source filed them. The calls are words filed in the database; no cut-off is given here.

How the values were obtained:
[1] = system: MIA PaCa-2; assay: Cytotoxicity against human MIAPaCa2 cells at 0.5 uM after 72 hrs by MTT assay; assay type: functional
[2] = system: BXPC-3; assay: Cytotoxicity against human BxPC3 cells at 10 uM after 72 hrs by MTT assay; assay type: functional, cell-based
[3] = system: MIA PaCa-2; assay: Chemo-sensitizing activity in human MIAPaCa2 cells assessed as potentiation of gemcitabine-induced cytotoxicity at 2.5 uM after 72 hrs by MTT assay; assay type: functional, cell-based
[4] = system: MIA PaCa-2; assay: Induction of apoptosis in human MIAPaCa2 cells at 10 uM after 72 hrs by Histone DNA ELISA; assay type: functional, cell-based
[5] = system: MIA PaCa-2; assay: Cytotoxicity against human MIAPaCa2 cells at 5 to 25 uM after 72 hrs by MTT assay; assay type: functional, cell-based

SMILES	Activity [1] [%]	Activity [2]	Activity [3]	Activity [4]	Activity [5]
Nc1ccn([C@@H]2O[C@H](CO)[C@@H](O)C2(F)F)c(=O)n1 [GEMCITABINE]	>50				
CC1=C(/N=C/c2ccc(F)c(F)c2F)C(=O)C(C(C)C)=CC1=O		Active	inactive	Active	
CC1=C(N)C(=O)C(C(C)C)=CC1=O		Active			
CC1=C(/N=C/c2ccc(O)c(O)c2O)C(=O)C(C(C)C)=CC1=O		Active	Active	Active	Active
